Measured values taken from patent publication US11944092B2, “Compositions for controlling phytoplankton contamination” (BLUEGREEN WATER TECHNOLOGIES LTD., priority 2019, dated 2024).
Each block holds one compound with its values, some of them ahead of it.

Tests used:
[1] = system: Microcystis; settings: cited from earlier work
[2] = system: Planktothrix agardhii; settings: cited from earlier work
[3] = system: Planktothrix agardhii; settings: equivalent of 2.5 mg/L in 1140 L, 9500 cm^2
[4] = system: Microcystis; settings: in vivo
[5] = Buoyancy by weighing-pan set-up (FIG. 2); assay type: physicochemical
Text: FIG. 2 schematically illustrates an experimental set-up for testing the buoyancy of the herein disclosed compositions, including (1) a balance; (2) a measuring pod with an aperture; (3) an underneath hook to measure weight; (4) a beaker filled with water simulating an aquatic system; (5) a weighing-pan.
In order to test the buoyancy of the herein disclosed compositions, an experimental set-up, schematically illustrated in FIG. 2, was applied. In this set-up, a laboratory balance 1 (0-2,000±0.1 g) was positioned to measure the weight of a composition placed on a weighing-pan 5 immersed in a beaker filled with water 4. If the composition is non-buoyant (AI without the coating material) an increase in weight is anticipated (‘negative control’). Oppositely, if the composition is buoyant, the weight is expected to remain essentially unchanged.

[6] = Buoyancy of sodium percarbonate in 15 ml vials; assay type: physicochemical; settings: 5 grams, FIG. 5
[7] = Buoyancy and resurfacing of coated copper sulfate compositions in water (vials, glasses; visual); assay type: physicochemical; settings: granular copper sulfate with different % (w/w) coating placed in water, FIG. 1
[8] = system: algal bloom (cyanobacterial biomass); experiment: Seasonal treatment of algal bloom at ~1.04 km^2 irrigation pond; assay type: in vivo
Experimental: As detailed in FIG. 9, biomass and total copper concentrations were measured during the first two days to assess efficacy and minimal required AI concentrations. Cyanobacterial biomass was measured using a YSI Exo-3 probe that was supplied with a GPS. […] Water samples for total copper concentrations, as well as estimation of particle time travel on the water, as well as final coverage, was done with a kayak and by using a laser distance/range measurer. Total copper concentrations were measured with a YSI 9300 photometer in accordance with manufacturer instructions.

[9] = Sedimentation analysis in 10-liter cylinders with sediment; assay type: physicochemical; settings: 10-liter cylinder, after one hour, FIG. 6
Experimental: Two 10-liter cylinders were filled with water and supplemented with sediment. To one cylinder, granules of copper sulfate pentahydrate (mimicking standard treatment) were added, while a buoyant copper-based composition was added to the other cylinder.

Compound: OO [H2O2, hydrogen peroxide]
H2O2 dose at which abundance of Microcystis decreased ([1]; 150 L mesocosm): ≥ 4 mg/L
cell density of Microcystis ([1]; H2O2 dose 2 mg/L): did not decrease
time to reappearance of high Microcystis cell density ([1]; H2O2 dose of 2 mg/L): 11 days
lowest H2O2 concentration that sufficed to significantly reduce the P. agardhii population ([2]; Plexiglas containers, 2*10^6 cells/mL): 2.5 mg/L
photosynthetic performance and cell counts of zooplankton population ([2]; at 2.5 mg/L H2O2): severely reduced
time until cyanobacteria population started to recover ([2]; natural water body): 6-7 weeks
lowest effective H2O2 amount per surface area [3]: 2.85 gr/m^2
H2O2 amount per surface area at which Microcystis decreased [4]: ≥ 2.44 gr/m^2

Compound: O=c1nc([O-])n(Cl)c(=O)n1Cl.[Na+] [un-encapsulated NADCC, sodium dichloroisocyanurate]
weight increase on weighing-pan ([5]; 9.5 grams placed on the weighing-pan in water): ~5.3 g

buoyancy in water [6]: sank immediately
Compound: O=C([O-])[O-].O=C([O-])[O-].OO.OO.OO.[Na+].[Na+].[Na+].[Na+] [uncoated sodium percarbonate, sodium percarbonate]

Compound: copper sulfate pentahydrate
buoyancy in water (floating, sinking, resurfacing) ([7]; listed as non-coated active ingredient (0.0% (w/w))): sank immediately to the bottom
buoyancy in water (floating, sinking, resurfacing) ([7]; listed as raw copper salt (“0% coating”)): sunk immediately after dispersion
average chlorophyll-a concentration ([8]; 2015, 6 aerial applications, total of 8,000 kg): 100-200 μg chlorophyll-a/L
average cyanobacterial concentration (chlorophyll-a) ([8]; 2016, 7 aerial applications of 2000 kg): 60 to 80 µg/L
weight increase on weighing-pan ([5]; samples of 100 grams, set-up of FIG. 2): 50%±3%
behaviour in water column with sediment [9]: immediately sank into the sediment
